Test results from ChEMBL document CHEMBL1142640, “New natural product isolation and comparison of the secondary metabolite content of three distinct samples of the sea hare Aplysia dactylomela from tenerife” (J Nat Prod, 2000).
Values after ≈ are worked out from the molar mass of the structure shown. Active and inactive are the calls of the source. The calls are words filed in the database; no cut-off is given here.

Experiments:
Mycobacterium avium = experiment: Antitubercular activity against Mycobacterium avium; type: functional
Caenorhabditis elegans = experiment: Nematicidal activity against Caenorhabditis elegans; type: functional, organism-based
[1] = molecular target: Human immunodeficiency virus type 1 reverse transcriptase (Human immunodeficiency virus 1) (UniProt Q72547); experiment: Inhibition of HIV1 reverse transcriptase
[2] = molecular target: Tyrosine-protein kinase Lck (Homo sapiens) (UniProt P06239); experiment: Inhibition of p56lck
Priestia megaterium = experiment: Antibacterial activity against Bacillus megaterium at 50 ug/disk; type: functional
Escherichia coli = experiment: Antibacterial activity against Escherichia coli at 50 ug/disk; type: functional
Microbotryum violaceum = experiment: Antifungal activity against Microbotryum violaceae assessed as no colonies of test organism growing within inhibition zone at 50 ug/disk; type: functional; conditions: read-out: IZ
[Chlorella] fusca [3] = Antialgal activity against Chlorella fusca assessed as no colonies of test organism growing within inhibition zone at 50 ug/disk; type: functional; conditions: Scenedesmus fuscus; read-out: IZ
[Chlorella] fusca [4] = Antialgal activity against Chlorella fusca; type: functional, Scenedesmus fuscus
[5] = Toxicity in Artemia salina at 0.5 mg/mL after 48 hrs; type: organism-based; conditions: in vivo, read-out: Activity
[6] = test system: Mycobacterium tuberculosis; experiment: Antitubercular activity against Mycobacterium tuberculosis; type: functional
Lu1 = experiment: Cytotoxicity against human Lu1 cells; type: functional, cell-based
KB = experiment: Cytotoxicity against human KB cells; type: functional, cell-based
ZR-75-1 = experiment: Cytotoxicity against human ZR-75-1 cells; type: functional, cell-based

Tyrosine-protein kinase Lck (Homo sapiens), sequence (P06239 2-509 limits assumed): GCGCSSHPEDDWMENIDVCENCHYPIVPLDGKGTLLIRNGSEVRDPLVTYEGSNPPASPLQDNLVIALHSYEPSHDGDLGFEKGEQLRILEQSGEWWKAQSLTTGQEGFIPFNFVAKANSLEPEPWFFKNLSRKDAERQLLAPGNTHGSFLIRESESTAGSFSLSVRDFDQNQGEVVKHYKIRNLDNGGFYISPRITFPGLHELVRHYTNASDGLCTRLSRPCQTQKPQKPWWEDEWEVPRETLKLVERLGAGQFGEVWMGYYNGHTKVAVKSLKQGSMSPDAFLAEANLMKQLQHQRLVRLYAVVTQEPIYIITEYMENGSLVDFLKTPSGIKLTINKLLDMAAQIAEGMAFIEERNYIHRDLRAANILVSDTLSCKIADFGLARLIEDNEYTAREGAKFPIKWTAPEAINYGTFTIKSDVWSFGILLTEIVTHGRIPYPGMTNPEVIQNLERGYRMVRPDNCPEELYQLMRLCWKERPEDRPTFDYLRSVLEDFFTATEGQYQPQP

## C[C@]1(/C=C/Cl)C[C@](Cl)(CBr)[C@@H](Br)C[C@H]1Cl
Mycobacterium avium
  MIC: 34 µg/mL (≈ 85.1 µM)
Caenorhabditis elegans
  Activity: Active
[1]
  Activity: inactive
[2]
  Activity: inactive
Priestia megaterium
  Activity: inactive
Escherichia coli
  Activity: inactive
Microbotryum violaceum
  zone of inhibition at 50 µg/disc: 2 mm
[Chlorella] fusca [3]
  zone of inhibition at 50 µg/disc: 16 mm
[Chlorella] fusca [4]
  MIC: 7 µg
[5]
  mortality at 48 h, 0.5 mg/mL: 100%
[6]
  MIC: 32 µg/mL (≈ 80.1 µM)
Lu1
  IC50: 12.9 µg/mL (≈ 32.3 µM)
KB
  IC50: 13.3 µg/mL (≈ 33.3 µM)
ZR-75-1
  IC50: 7.8 µg/mL (≈ 19.5 µM)
